pIC50: −log10 of the molar value.

The subject of the first experiment is H1N1 (influenza A/New Caledonia/20/99). As to the kind of experiment: microbe, parasite or virus in culture. In kind it is cell-based.
Details: not given
The pIC50 is the negative decadic logarithm of the IC50, by convention in mol/L. Low readings indicate a high IC50, high ones a low IC50. In turn, `O=C(Nc1ccc(Cl)cc1)c1c(NC(=O)C2CCC(C(=O)O)CC2)sc2c1CCC2` (single isomer, unassigned) [Compound 98, 4-[[3-[(4-chlorophenyl)carbamoyl]-5,6-dihydro-4H-cyclopenta[b]thiophen-2-yl]carbamoyl]cyclohexanecarboxylic acid] gave a pIC50 of 4.80.
Consider “2-[[6-tert-butoxycarbonyl-3-[(4-chlorophenyl)carbamoyl]-5,7-dihydro-4H-thieno[2,3-c]pyridin-2-yl]carbamoyl]cyclohexanecarboxylic acid [Compound 91]”, for which the pIC50 is 5.00.

Staying with this experiment, now noted: Influenza A virus, H1N1, A549, 48 h.
`Cc1cc(Cl)ccc1NC(=O)c1c(NC(=O)C2CCCCC2C(=O)O)sc2c1CCC2` (centres unmarked) [Compound 7, 2-[[3-[(4-Chloro-2-methyl-phenyl)carbamoyl]-5,6-dihydro-4H-cyclopenta[b]thiophen-2-yl]carbamoyl]cyclohexanecarboxylic acid] gave a negative logarithm of the IC50 (pIC50) of 5.00.
Still for that read-out and setting: as for `O=C(Nc1cnc(Cl)cn1)c1c(NC(=O)C2CCCCC2C(=O)O)sc2c1CCC2` (centres unmarked) [Compound 26, 2-[[3-[(5-Chloropyrazin-2-yl)carbamoyl]-5,6-dihydro-4H-cyclopenta[b]thiophen-2-yl]carbamoyl]cyclohexanecarboxylic acid], the figure is 4.71; as for `O=C(NCc1cccc(Cl)c1)c1c(NC(=O)C2CCCCC2C(=O)O)sc2c1CCC2` (centres unmarked) [Compound 11, 2-[[3-[(3-Chlorophenyl)methylcarbamoyl]-5,6-dihydro-4H-cyclopenta[b]thiophen-2-yl]carbamoyl]cyclohexanecarboxylic acid], 5.06.
In turn, `O=C1CC(C(=O)Nc2sc3c(c2C(=O)Nc2ccc(Cl)cc2)CCC3)CCN1` (centres unmarked) [Compound 101, N-[3-[(4-chlorophenyl)carbamoyl]-5,6-dihydro-4H-cyclopenta[b]thiophen-2-yl]-2-oxo-piperidine-4-carboxamide] showed a negative logarithm of the IC50 (pIC50) of 4.72.
On the same count and under the same terms, as for `O=C(Nc1ccc(Cl)cc1)c1c(NC(=O)C2COCCN2)sc2c1CCC2` (centres unmarked) [Compound 103, N-[3-[(4-chlorophenyl)carbamoyl]-5,6-dihydro-4H-cyclopenta[b]thiophen-2-yl]morpholine-3-carboxamide], the figure is 4.62; as for `NS(=O)(=O)N1CCC1C(=O)Nc1sc2c(c1C(=O)Nc1ccc(Cl)cc1)CCC2` (centres unmarked) [Compound 102, N-[3-[(4-chlorophenyl)carbamoyl]-5,6-dihydro-4H-cyclopenta[b]thiophen-2-yl]-1-sulfamoyl-azetidine-2-carboxamide], 4.68.
The same measure, in the same setting: for `CS(=O)(=O)N1CCCCC1C(=O)Nc1sc2c(c1C(=O)Nc1ccc(Cl)cc1)CCC2` (centres unmarked) [Compound 100, N-[3-[(4-chlorophenyl)carbamoyl]-5,6-dihydro-4H-cyclopenta[b]thiophen-2-yl]-1-methylsulfonyl-piperidine-2-carboxamide] the value was 4.78.
`CC1OCc2sc(NC(=O)C3CCCCC3C(=O)O)c(C(=O)Nc3ccc(Cl)cc3)c21` (centres unmarked) [Compound 39, 2-[[3-[(4-Chlorophenyl)carbamoyl]-4-methyl-4,6-dihydrothieno[2,3-c]furan-2-yl]carbamoyl]cyclohexanecarboxylic acid] had a negative logarithm of the IC50 (pIC50) of 4.27.
Still for that read-out and setting: as for `Cc1cccc(NC(=O)c2c(NC(=O)C3CCCCC3C(=O)O)sc3c2CCC3)c1` (centres unmarked) [Compound 58, 2-[[3-(m-Tolylcarbamoyl)-5,6-dihydro-4H-cyclopenta[b]thiophen-2-yl]carbamoyl]cyclohexanecarboxylic acid], the figure is 4.56; as for `CC(=O)c1cccc(NC(=O)c2c(NC(=O)C3CCCCC3C(=O)O)sc3c2CCC3)c1` (centres unmarked) [Compound 12, 2-[[3-[(3-Acetylphenyl)carbamoyl]-5,6-dihydro-4H-cyclopenta[b]thiophen-2-yl]carbamoyl]cyclohexanecarboxylic acid], 4.67.
On the same count and under the same terms, for `O=C(O)C=CC(=O)Nc1sc2c(c1C(=O)Nc1ccc(Cl)cc1)CCC2` [Compound 43, 4-[[3-[(4-Chlorophenyl)carbamoyl]-5,6-dihydro-4H-cyclopenta[b]thiophen-2-yl]amino]-4-oxo-but-2-enoic acid] the value was 4.48; for `O=C(Nc1ccc(Cl)cc1)c1c(NC(=O)C2CCCC(C(=O)O)C2)sc2c1CCC2` (centres unmarked) [Compound 99, 3-[[3-[(4-chlorophenyl)carbamoyl]-5,6-dihydro-4H-cyclopenta[b]thiophen-2-yl]carbamoyl]cyclohexanecarboxylic acid], 4.78; for `O=C(Nc1ccc(Cl)cc1)c1c(NC(=O)C2CCCCC2C(=O)O)sc2c1CCCC2` (stereo not drawn) [Compound 61, 2-[[3-[(4-Chlorophenyl)carbamoyl]-4,5,6,7-tetrahydrobenzothiophen-2-yl]carbamoyl]cyclohexane-cis-carboxylic acid], 5.07.
In turn, `O=C(Nc1ccc(Cl)cc1)c1c(NC(=O)C2CCC(C(=O)O)CC2)sc2c1CCC2` (single isomer, unassigned) [Compound 97, 4-[[3-[(4-chlorophenyl)carbamoyl]-5,6-dihydro-4H-cyclopenta[b]thiophen-2-yl]carbamoyl]cyclohexanecarboxylic acid] gave a pIC50 of 4.83.
`O=C(Nc1ccc(Cl)cc1)c1ccsc1NC(=O)C1C2CCC(CC2)C1C(=O)O` (centres unmarked) [Compound 71, 2-[[3-[(4-Chlorophenyl)carbamoyl]-2-thienyl]carbamoyl]bicyclo[2.2.2]octane-3-carboxylic acid] showed a negative-log IC50 (pIC50) of 4.91.
The molecule `O=C(Nc1ccc(CO)cc1)c1c(NC(=O)C2CCCCC2C(=O)O)sc2c1CCC2` (centres unmarked) [Compound 19, 2-[[3-[[4-(Hydroxymethyl)phenyl]carbamoyl]-5,6-dihydro-4H-cyclopenta[b]thiophen-2-yl]carbamoyl]cyclohexanecarboxylic acid] had a pIC50 of 4.51.
Turning to `CS(=O)(=O)c1ccc(NC(=O)c2c(NC(=O)C3CCCCC3C(=O)O)sc3c2CCC3)cc1` (centres unmarked) [Compound 31, 2-[[3-[(4-Methylsulfonylphenyl)carbamoyl]-5,6-dihydro-4H-cyclopenta[b]thiophen-2-yl]carbamoyl]cyclohexanecarboxylic acid], the negative logarithm of the IC50 (pIC50) is 4.56.
Same read-out and setting: as for `CC(C)(CC(=O)O)CC(=O)Nc1sc2c(c1C(=O)Nc1ccc(Cl)cc1)CCC2` [Compound 47, 5-[[3-[(4-Chlorophenyl)carbamoyl]-5,6-dihydro-4H-cyclopenta[b]thiophen-2-yl]amino]-3,3-dimethyl-5-oxo-pentanoic acid], the figure is 4.64; as for `O=C(Nc1ccc(OC(F)(F)F)cc1)c1c(NC(=O)C2CCCCC2C(=O)O)sc2c1CCC2` (centres unmarked) [Compound 20, 2-[[3-[[4-(Trifluoromethoxy)phenyl]carbamoyl]-5,6-dihydro-4H-cyclopenta[b]thiophen-2-yl]carbamoyl]cyclohexanecarboxylic acid], 5.19; as for `O=C(NCc1ccc(Cl)cc1)c1c(NC(=O)C2CCCCC2C(=O)O)sc2c1CCC2` (centres unmarked) [Compound 5, 2-[[3-[(4-Chlorophenyl)methylcarbamoyl]-5,6-dihydro-4H-cyclopenta[b]thiophen-2-yl]carbamoyl]cyclohexanecarboxylic acid], 4.97.
The same measure, in the same setting: for `CS(=O)(=O)N1CCOCC1C(=O)Nc1sc2c(c1C(=O)Nc1ccc(Cl)cc1)CCC2` (centres unmarked) [Compound 93, N-[3-[(4-chlorophenyl)carbamoyl]-5,6-dihydro-4H-cyclopenta[b]thiophen-2-yl]-4-methylsulfonyl-morpholine-3-carboxamide] the value was 4.90; for `NC(=O)N1CCOCC1C(=O)Nc1sc2c(c1C(=O)Nc1ccc(Cl)cc1)CCC2` (centres unmarked) [Compound 82, N3-[3-[(4-chlorophenyl)carbamoyl]-5,6-dihydro-4H-cyclopenta[b]thiophen-2-yl]morpholine-3,4-dicarboxamide], 5.36; for `O=C(Nc1ccc2c(c1)COC2)c1c(NC(=O)C2CCCCC2C(=O)O)sc2c1CCC2` (centres unmarked) [Compound 30, 2-[[3-(1,3-Dihydroisobenzofuran-5-ylcarbamoyl)-5,6-dihydro-4H-cyclopenta[b]thiophen-2-yl]carbamoyl]cyclohexanecarboxylic acid], 4.71.
Same read-out and setting: as for `CS(=O)(=O)N[C@@H]1CCCC[C@@H]1C(=O)Nc1sc2c(c1C(=O)Nc1ccc(Cl)cc1)CCC2` [Compound 85, N-(4-chlorophenyl)-2-[[(1S,2R)-2-(methanesulfonamido)cyclohexanecarbonyl]amino]-5,6-dihydro-4H-cyclopenta[b]thiophene-3-carboxamide], the figure is 5.25; as for `CC(C)(C)c1ccc(NC(=O)c2c(NC(=O)C3CCCCC3C(=O)O)sc3c2CCC3)cc1` (centres unmarked) [Compound 21, 2-[[3-[(4-tert-Butylphenyl)carbamoyl]-5,6-dihydro-4H-cyclopenta[b]thiophen-2-yl]carbamoyl]cyclohexanecarboxylic acid], 5.33; as for `NS(=O)(=O)N1CCOC(C(=O)Nc2sc3c(c2C(=O)Nc2ccc(Cl)cc2)CCC3)C1` (centres unmarked) [Compound 87, N-[3-[(4-chlorophenyl)carbamoyl]-5,6-dihydro-4H-cyclopenta[b]thiophen-2-yl]-4-sulfamoyl-morpholine-2-carboxamide], 5.17.
Take `Cc1ccc(NC(=O)c2c(NC(=O)C3CCCCC3C(=O)O)sc3c2CCC3)cc1Cl` (centres unmarked) [Compound 14, 2-[[3-[(3-chloro-4-methyl-phenyl)carbamoyl]-5,6-dihydro-4H-cyclopenta[b]thiophen-2-yl]carbamoyl]cyclohexanecarboxylic acid]: the pIC50 was 5.32.
In the case of `O=C(Nc1ccc(Cl)cc1)c1c(NC(=O)C2CCCC2C(=O)O)sc2c1CCC2` (centres unmarked) [Compound 46, 2-[[3-[(4-Chlorophenyl)carbamoyl]-5,6-dihydro-4H-cyclopenta[b]thiophen-2-yl]carbamoyl]cyclopentanecarboxylic acid], the pIC50 was 4.76.
The same measure, in the same setting: for `O=C(Cc1cnccn1)Nc1sc2c(c1C(=O)Nc1ccc(Cl)cc1)CCC2` [Compound 78, N-(4-chlorophenyl)-2-[(2-pyrazin-2-ylacetyl)amino]-5,6-dihydro-4H-cyclopenta[b]thiophene-3-carboxamide] the value was 6.00.
`O=C1CCCC(C(=O)Nc2sc3c(c2C(=O)Nc2ccc(Cl)cc2)CCC3)C1` (centres unmarked) [Compound 53, N-(4-Chlorophenyl)-2-[(3-oxocyclohexanecarbonyl)amino]-5,6-dihydro-4H-cyclopenta[b]thiophene-3-carboxamide] had a pIC50 of 4.89.

These data come from patent US11279683B2, “Thiophene derivatives as antiviral agents” (ENYO PHARMA, priority 2016, dated 2022).
